Measurements: ChEMBL document CHEMBL1201862, “PubChem BioAssay data set” (2004)
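Tested at 5 concentrations; 48 h exposure; 96-well plates; endpoints linearly interpolated, else capped at highest concentration. GI50: concentration for 50% inhibition of growth.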 Activity calls are given as the source filed them. No stated cut-off is given here; in the data, active = GI50 up to about 1.1 µM and inactive = higher.

Assays:
Assay in all cases: NCI-60 cell line screen, 48 h
LOX IMVI = system: LOX IMVI
SW-620 = system: SW-620
HOP-62 = system: HOP-62
CCRF-CEM = system: CCRF-CEM
Hs-578T = system: Hs-578T
TK-10 = system: TK-10
SNB-75 = system: SNB-75
KM12 = system: KM12
OVCAR-3 = system: OVCAR-3
NCI-H522 = system: NCI-H522
EKVX = system: EKVX
HCT-116 = system: HCT-116
SR = system: SR
U-251 = system: U-251
HCT-15 = system: HCT-15
OVCAR-8 = system: OVCAR-8
HOP-92 = system: HOP-92
OVCAR-4 = system: OVCAR-4
HT-29 = system: HT-29
UO-31 = system: UO-31
ACHN = system: ACHN
K562 = system: K562
BT-549 = system: BT-549
IGROV-1 = system: IGROV-1
786-0 = system: 786-0
UACC-257 = system: UACC-257
SK-MEL-2 = system: SK-MEL-2
SF-268 = system: SF-268
PC-3 = system: PC-3
HCC 2998 = system: HCC 2998
HL-60 = system: HL-60
A549 = system: A549
MDA-MB-435 = system: MDA-MB-435
SF-295 = system: SF-295
SK-MEL-5 = system: SK-MEL-5
RXF 393 = system: RXF 393
NCI-H460 = system: NCI-H460
MCF7 = system: MCF7
SK-OV-3 = system: SK-OV-3
MDA-N = system: MDA-N
M14 = system: M14
SF-539 = system: SF-539
SN12C = system: SN12C
SNB-19 = system: SNB-19
NCI-H226 = system: NCI-H226
RPMI-8226 = system: RPMI-8226
OVCAR-5 = system: OVCAR-5
SK-MEL-28 = system: SK-MEL-28
MDA-MB-231 = system: MDA-MB-231
UACC-62 = system: UACC-62
NCI-H23 = system: NCI-H23
MOLT-4 = system: MOLT-4
CAKI-1 = system: CAKI-1
COLO 205 = system: COLO 205
A498 = system: A498
T47D = system: T47D
NCI/ADR-RES = system: NCI/ADR-RES
DU-145 = system: DU-145

## CCCCCCCCCCCCCCC(C(=O)[O-])[n+]1ccccc1 (stereo unspecified)
LOX IMVI
  GI50: > 100 µM (inactive)
SW-620
  GI50: > 100 µM (inactive)
HOP-62
  GI50: > 100 µM (inactive)
CCRF-CEM
  GI50: > 100 µM (inactive)
Hs-578T
  GI50: > 100 µM (inactive)
TK-10
  GI50: 15.1 µM (inactive)
SNB-75
  GI50: > 100 µM (inactive)
KM12
  GI50: > 100 µM (inactive)
OVCAR-3
  GI50: > 100 µM (inactive)
NCI-H522
  GI50: > 100 µM (inactive)
EKVX
  GI50: > 100 µM (inactive)
HCT-116
  GI50: > 100 µM (inactive)
SR
  GI50: > 100 µM (inactive)
U-251
  GI50: 28.6 µM (inactive)
HCT-15
  GI50: > 100 µM
OVCAR-8
  GI50: 98.6 µM (inactive)
HOP-92
  GI50: > 100 µM (inactive)
OVCAR-4
  GI50: > 100 µM (inactive)
HT-29
  GI50: > 100 µM (inactive)
UO-31
  GI50: > 100 µM (inactive)
ACHN
  GI50: > 100 µM (inactive)
K562
  GI50: > 100 µM (inactive)
BT-549
  GI50: > 100 µM (inactive)
IGROV-1
  GI50: > 100 µM (inactive)
786-0
  GI50: > 100 µM (inactive)
UACC-257
  GI50: > 100 µM (inactive)
SK-MEL-2
  GI50: > 100 µM (inactive)
SF-268
  GI50: > 100 µM (inactive)
PC-3
  GI50: 18.8 µM (inactive)
HCC 2998
  GI50: 97.3 µM (inactive)
HL-60
  GI50: 98.4 µM (inactive)
A549
  GI50: > 100 µM (inactive)
MDA-MB-435
  GI50: > 100 µM (inactive)
SF-295
  GI50: > 100 µM (inactive)
SK-MEL-5
  GI50: > 100 µM (inactive)
RXF 393
  GI50: 20.4 µM (inactive)
NCI-H460
  GI50: > 100 µM (inactive)
MCF7
  GI50: 16.1 µM (inactive)
SK-OV-3
  GI50: > 100 µM (inactive)
MDA-N
  GI50: > 100 µM (inactive)
M14
  GI50: > 100 µM (inactive)
SF-539
  GI50: > 100 µM (inactive)
SN12C
  GI50: 23.4 µM (inactive)
SNB-19
  GI50: > 100 µM (inactive)
NCI-H226
  GI50: > 100 µM (inactive)
RPMI-8226
  GI50: > 100 µM (inactive)
OVCAR-5
  GI50: 84.1 µM (inactive)
SK-MEL-28
  GI50: > 100 µM (inactive)
MDA-MB-231
  GI50: > 100 µM (inactive)
UACC-62
  GI50: 77.3 µM (inactive)
NCI-H23
  GI50: > 100 µM (inactive)
MOLT-4
  GI50: > 100 µM (inactive)
CAKI-1
  GI50: > 100 µM (inactive)
COLO 205
  GI50: > 100 µM (inactive)
A498
  GI50: > 100 µM (inactive)
T47D
  GI50: > 100 µM (inactive)
NCI/ADR-RES
  GI50: > 100 µM (inactive)
DU-145
  GI50: > 100 µM (inactive)

## COC(=O)C(CCC1C=CCC1)/N=C\c1ccccc1 (stereo unspecified)
LOX IMVI
  GI50: 76.7 µM (inactive)
SW-620
  GI50: > 100 µM (inactive)
HOP-62
  GI50: 68.5 µM (inactive)
CCRF-CEM
  GI50: 56 µM (inactive)
Hs-578T
  GI50: > 100 µM (inactive)
TK-10
  GI50: 99.1 µM (inactive)
SNB-75
  GI50: 93.3 µM (inactive)
KM12
  GI50: 45 µM (inactive)
OVCAR-3
  GI50: 66.5 µM (inactive)
NCI-H522
  GI50: 54.2 µM (inactive)
EKVX
  GI50: 44.8 µM (inactive)
HCT-116
  GI50: 31.3 µM (inactive)
SR
  GI50: 38.3 µM (inactive)
U-251
  GI50: 52.1 µM (inactive)
HCT-15
  GI50: 43.6 µM
OVCAR-8
  GI50: 68.2 µM (inactive)
HOP-92
  GI50: 67 µM (inactive)
OVCAR-4
  GI50: 54.7 µM (inactive)
HT-29
  GI50: 50 µM (inactive)
UO-31
  GI50: 51.9 µM (inactive)
ACHN
  GI50: 73.5 µM (inactive)
K562
  GI50: 47.2 µM (inactive)
BT-549
  GI50: 78.5 µM (inactive)
IGROV-1
  GI50: > 100 µM (inactive)
786-0
  GI50: 66.2 µM (inactive)
UACC-257
  GI50: 38.2 µM (inactive)
SK-MEL-2
  GI50: 37.5 µM (inactive)
SF-268
  GI50: 99.8 µM (inactive)
PC-3
  GI50: 35.6 µM (inactive)
HCC 2998
  GI50: 86.3 µM (inactive)
HL-60
  GI50: 36.8 µM (inactive)
A549
  GI50: 49.9 µM (inactive)
MDA-MB-435
  GI50: 60.3 µM (inactive)
SF-295
  GI50: 57.7 µM (inactive)
SK-MEL-5
  GI50: 32.1 µM (inactive)
RXF 393
  GI50: 58.5 µM (inactive)
NCI-H460
  GI50: 44 µM (inactive)
MCF7
  GI50: 46.8 µM (inactive)
SK-OV-3
  GI50: > 100 µM (inactive)
MDA-N
  GI50: 49.9 µM (inactive)
M14
  GI50: 46.2 µM (inactive)
SF-539
  GI50: > 100 µM (inactive)
SN12C
  GI50: 60.4 µM (inactive)
SNB-19
  GI50: 79.1 µM (inactive)
NCI-H226
  GI50: 56.8 µM (inactive)
RPMI-8226
  GI50: 24.5 µM (inactive)
OVCAR-5
  GI50: > 100 µM (inactive)
SK-MEL-28
  GI50: > 100 µM (inactive)
MDA-MB-231
  GI50: 68.9 µM (inactive)
UACC-62
  GI50: 74.8 µM (inactive)
NCI-H23
  GI50: 52.6 µM (inactive)
MOLT-4
  GI50: 33.8 µM (inactive)
CAKI-1
  GI50: 50.2 µM (inactive)
COLO 205
  GI50: 48.8 µM (inactive)
A498
  GI50: 81.5 µM (inactive)
T47D
  GI50: 47.4 µM (inactive)
NCI/ADR-RES
  GI50: 26.9 µM (inactive)
DU-145
  GI50: 97.9 µM (inactive)
